From ChEMBL document CHEMBL1909046, “DrugMatrix in vitro pharmacology data”
pIC50, pKi: −log10 of the molar value.

What was measured:
Cytochrome P450 3A4 = Cytochrome P450 3A4 (Homo sapiens, UniProt P08684); settings: bti-tn-5b1-4; also: in other assays of this panel Not Active means under 50% inhibition at 10 µM
[1] = target: Sodium-dependent noradrenaline transporter (Homo sapiens, UniProt P23975); assay: DRUGMATRIX: Norepinephrine Transporter radioligand binding (ligand: [125I] RTI-55); type: cell membranes, MDCK, Membrane; settings: Not Active = under 50% inhibition at 10 µM; for IC50: mdck
Cytochrome P450 1A2 = target: T1, Cytochrome P450 1A2 (Homo sapiens, UniProt P05177); settings: bti-tn-5b1-4; also: in other assays of this panel Not Active means under 50% inhibition at 10 µM
T1 sequence (P05177 whole entry): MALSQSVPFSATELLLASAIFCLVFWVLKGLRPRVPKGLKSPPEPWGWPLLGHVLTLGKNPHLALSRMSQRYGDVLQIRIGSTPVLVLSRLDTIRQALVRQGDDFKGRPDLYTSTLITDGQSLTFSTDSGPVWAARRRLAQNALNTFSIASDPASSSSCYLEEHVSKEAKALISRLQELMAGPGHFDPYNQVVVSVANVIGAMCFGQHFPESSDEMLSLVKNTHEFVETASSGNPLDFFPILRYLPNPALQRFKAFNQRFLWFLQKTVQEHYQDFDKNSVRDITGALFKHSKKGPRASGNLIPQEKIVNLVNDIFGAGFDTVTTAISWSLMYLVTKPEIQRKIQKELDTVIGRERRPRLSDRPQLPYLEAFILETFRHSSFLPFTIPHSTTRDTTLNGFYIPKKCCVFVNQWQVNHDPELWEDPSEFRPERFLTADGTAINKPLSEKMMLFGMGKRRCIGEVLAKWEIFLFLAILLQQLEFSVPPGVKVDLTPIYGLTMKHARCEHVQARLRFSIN

Cytochrome P450 2A6 = target: T2, Cytochrome P450 2A6 (Homo sapiens, UniProt P11509); settings: bti-tn-5b1-4; also: in other assays of this panel Not Active means under 50% inhibition at 10 µM
T2 sequence (P11509 whole entry): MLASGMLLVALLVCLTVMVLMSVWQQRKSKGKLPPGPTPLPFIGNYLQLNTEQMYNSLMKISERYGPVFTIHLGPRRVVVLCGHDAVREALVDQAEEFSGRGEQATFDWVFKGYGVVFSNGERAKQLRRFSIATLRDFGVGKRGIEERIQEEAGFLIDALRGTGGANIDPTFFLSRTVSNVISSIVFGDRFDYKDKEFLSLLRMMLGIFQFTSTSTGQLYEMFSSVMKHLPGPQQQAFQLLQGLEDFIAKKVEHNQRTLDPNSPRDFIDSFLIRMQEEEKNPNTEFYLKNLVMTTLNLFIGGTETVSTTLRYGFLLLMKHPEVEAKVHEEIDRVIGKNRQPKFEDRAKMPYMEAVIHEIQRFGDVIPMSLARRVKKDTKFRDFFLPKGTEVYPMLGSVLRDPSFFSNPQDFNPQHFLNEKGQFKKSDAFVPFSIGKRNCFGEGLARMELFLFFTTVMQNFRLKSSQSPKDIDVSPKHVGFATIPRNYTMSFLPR

Cytochrome P450 2D6 = Cytochrome P450 2D6 (Homo sapiens, UniProt P10635); settings: bti-tn-5b1-4; also: in other assays of this panel Not Active means under 50% inhibition at 10 µM
Cytochrome P450 2C9 = Cytochrome P450 2C9 (Homo sapiens, UniProt P11712); settings: bti-tn-5b1-4; also: in other assays of this panel Not Active means under 50% inhibition at 10 µM
[2] = target: T3, 5-hydroxytryptamine receptor 2C (Homo sapiens, UniProt P28335); assay: DRUGMATRIX: Serotonin (5-Hydroxytryptamine) 5-HT2C radioligand binding (ligand: [3H] Mesulergine); type: cell membranes, CHO-K1, Membrane; settings: cho-k1; Not Active = under 50% inhibition at 10 µM
T3 sequence (P28335 whole entry): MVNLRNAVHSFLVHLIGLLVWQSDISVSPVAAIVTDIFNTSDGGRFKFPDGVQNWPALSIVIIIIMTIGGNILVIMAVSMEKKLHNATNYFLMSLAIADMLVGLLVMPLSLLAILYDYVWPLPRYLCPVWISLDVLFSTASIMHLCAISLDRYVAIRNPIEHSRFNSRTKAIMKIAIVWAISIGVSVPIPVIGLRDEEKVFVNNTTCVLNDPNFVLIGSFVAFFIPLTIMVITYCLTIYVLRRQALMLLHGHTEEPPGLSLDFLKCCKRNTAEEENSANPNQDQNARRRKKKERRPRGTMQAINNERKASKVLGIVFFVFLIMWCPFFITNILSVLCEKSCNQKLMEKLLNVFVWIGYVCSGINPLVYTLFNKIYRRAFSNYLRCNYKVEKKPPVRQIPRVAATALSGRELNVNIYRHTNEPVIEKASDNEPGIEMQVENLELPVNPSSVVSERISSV

Sodium-dependent noradrenaline transporter, sequence (P23975 whole entry): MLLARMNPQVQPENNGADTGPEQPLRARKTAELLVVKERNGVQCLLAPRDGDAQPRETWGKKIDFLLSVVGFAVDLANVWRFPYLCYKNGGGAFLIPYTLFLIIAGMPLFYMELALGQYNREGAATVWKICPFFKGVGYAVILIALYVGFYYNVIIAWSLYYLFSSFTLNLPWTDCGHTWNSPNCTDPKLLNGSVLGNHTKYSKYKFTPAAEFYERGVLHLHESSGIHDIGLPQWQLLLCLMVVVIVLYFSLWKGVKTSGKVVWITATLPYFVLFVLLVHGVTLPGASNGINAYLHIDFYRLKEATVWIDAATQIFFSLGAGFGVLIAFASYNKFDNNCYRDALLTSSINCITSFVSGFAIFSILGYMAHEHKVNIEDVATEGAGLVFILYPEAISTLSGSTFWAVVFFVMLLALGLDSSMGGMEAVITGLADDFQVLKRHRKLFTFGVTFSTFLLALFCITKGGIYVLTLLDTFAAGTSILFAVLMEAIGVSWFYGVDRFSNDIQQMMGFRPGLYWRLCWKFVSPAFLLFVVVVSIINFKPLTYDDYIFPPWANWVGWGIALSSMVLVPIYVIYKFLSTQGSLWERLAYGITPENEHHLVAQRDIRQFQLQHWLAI
Cytochrome P450 2C9, sequence (P11712 whole entry): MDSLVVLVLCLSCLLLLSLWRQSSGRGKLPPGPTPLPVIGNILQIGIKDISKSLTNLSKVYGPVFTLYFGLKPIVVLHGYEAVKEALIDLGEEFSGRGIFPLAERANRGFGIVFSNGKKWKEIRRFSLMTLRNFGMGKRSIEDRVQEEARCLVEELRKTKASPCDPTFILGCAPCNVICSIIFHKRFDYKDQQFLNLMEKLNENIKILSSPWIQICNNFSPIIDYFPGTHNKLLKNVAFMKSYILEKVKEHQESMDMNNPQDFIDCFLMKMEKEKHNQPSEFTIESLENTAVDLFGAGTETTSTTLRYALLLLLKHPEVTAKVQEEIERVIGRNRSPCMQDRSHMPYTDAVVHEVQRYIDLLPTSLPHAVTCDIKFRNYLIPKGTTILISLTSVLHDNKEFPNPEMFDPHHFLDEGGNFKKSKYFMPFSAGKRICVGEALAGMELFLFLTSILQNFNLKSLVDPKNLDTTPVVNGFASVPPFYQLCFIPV
Cytochrome P450 3A4, sequence (P08684 whole entry): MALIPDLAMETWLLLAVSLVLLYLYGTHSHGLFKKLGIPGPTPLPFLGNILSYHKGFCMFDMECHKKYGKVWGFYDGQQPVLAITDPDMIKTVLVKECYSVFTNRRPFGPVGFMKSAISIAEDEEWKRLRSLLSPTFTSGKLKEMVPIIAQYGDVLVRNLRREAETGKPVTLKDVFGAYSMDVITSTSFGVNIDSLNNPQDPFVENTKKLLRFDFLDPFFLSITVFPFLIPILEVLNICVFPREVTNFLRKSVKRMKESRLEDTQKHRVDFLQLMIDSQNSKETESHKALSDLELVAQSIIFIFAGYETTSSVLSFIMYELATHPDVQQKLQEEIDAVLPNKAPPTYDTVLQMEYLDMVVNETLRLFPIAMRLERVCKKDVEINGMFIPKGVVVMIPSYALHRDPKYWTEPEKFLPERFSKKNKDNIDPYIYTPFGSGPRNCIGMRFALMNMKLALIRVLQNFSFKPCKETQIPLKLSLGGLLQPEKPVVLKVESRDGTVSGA
Cytochrome P450 2D6, sequence (P10635 whole entry): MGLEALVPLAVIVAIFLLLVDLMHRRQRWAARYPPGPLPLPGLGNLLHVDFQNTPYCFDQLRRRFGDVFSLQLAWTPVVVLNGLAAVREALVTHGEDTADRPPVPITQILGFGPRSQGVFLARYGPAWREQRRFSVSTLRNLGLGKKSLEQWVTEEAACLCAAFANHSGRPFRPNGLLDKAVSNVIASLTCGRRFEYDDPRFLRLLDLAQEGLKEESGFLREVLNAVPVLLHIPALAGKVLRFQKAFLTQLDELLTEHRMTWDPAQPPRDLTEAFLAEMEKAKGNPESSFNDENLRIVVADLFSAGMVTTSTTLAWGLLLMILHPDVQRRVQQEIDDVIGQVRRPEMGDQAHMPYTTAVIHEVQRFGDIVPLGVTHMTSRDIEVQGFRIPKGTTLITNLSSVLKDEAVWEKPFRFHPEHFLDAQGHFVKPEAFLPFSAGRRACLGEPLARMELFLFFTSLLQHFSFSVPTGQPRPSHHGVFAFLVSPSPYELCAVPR

SMILES | IC50 (Cytochrome P450 3A4) | Ki (Cytochrome P450 3A4) | IC50 [1] | IC50 (Cytochrome P450 1A2) | Ki (Cytochrome P450 1A2) | IC50 (Cytochrome P450 2A6) | Ki (Cytochrome P450 2A6) | IC50 (Cytochrome P450 2D6) | Ki (Cytochrome P450 2D6) | IC50 (Cytochrome P450 2C9) | Ki (Cytochrome P450 2C9) | IC50 [2] | pIC50 ([1]; read-out: IC50) | pKi ([1]; read-out: Ki)
Cc1cc2c(s1)Nc1ccccc1N=C2N1CCN(C)CC1 [OLANZAPINE] | Not Active | Not Active | Not Active | Not Active | Not Active | Not Active | Not Active | Not Active | Not Active | Not Active | Not Active |  |  | 
CC1(C)[C@H](C(=O)O)N2C(=O)C[C@H]2S1(=O)=O [SULBACTAM] | Not Active | Not Active | Not Active | Not Active | Not Active | Not Active | Not Active | Not Active | Not Active | Not Active | Not Active | Not Active |  | 
Oc1ccc(/C=C/c2cc(O)cc(O)c2)cc1 [RESVERATROL] |  |  |  |  |  | Not Active | Not Active | Not Active | Not Active |  |  | Not Active | 5.64 | 5.64
O=C1CC[C@@]2(O)[C@H]3Cc4ccc(O)c5c4[C@@]2(CCN3CC2CC2)[C@H]1O5 [NALTREXONE] | Not Active | Not Active | Not Active | Not Active | Not Active | Not Active | Not Active |  |  | Not Active | Not Active | Not Active |  | 
Cc1nnc(NS(=O)(=O)c2ccc(N)cc2)s1 [SULFAMETHIZOLE] | Not Active | Not Active | Not Active | Not Active | Not Active | Not Active | Not Active | Not Active | Not Active | Not Active | Not Active | Not Active |  | 
C=CCc1ccc2c(c1)OCO2 [SAFROLE] | Not Active | Not Active | Not Active |  |  | Not Active | Not Active | Not Active | Not Active | Not Active | Not Active | Not Active |  | 
Cc1cn([C@H]2C=C[C@@H](CO)O2)c(=O)[nH]c1=O [STAVUDINE] | Not Active | Not Active | Not Active | Not Active | Not Active | Not Active | Not Active | Not Active | Not Active | Not Active | Not Active | Not Active |  | 
Nc1nc(N)c2nc(-c3ccccc3)c(N)nc2n1 |  |  | Not Active | Not Active | Not Active | Not Active | Not Active |  |  |  |  | Not Active |  | 
CN1C(=O)OC(C)(C)C1=O [TRIMETHADIONE] | Not Active | Not Active | Not Active | Not Active | Not Active | Not Active | Not Active | Not Active | Not Active |  |  | Not Active |  | 
Cc1ccc(S(=O)(=O)NC(=O)NN2CCCCCC2)cc1 [TOLAZAMIDE] |  |  | Not Active |  |  |  |  |  |  |  |  | Not Active |  | 
CCN(CC)C(=S)SSC(=S)N(CC)CC | Not Active | Not Active |  |  |  | Not Active | Not Active | Not Active | Not Active | Not Active | Not Active | Not Active |  | 
